The experiment has as its system dendritic cells. Description: Transwell overlaid with type 1 collagen or HMVEC-dLy monolayer, chemotaxis to CCL21 with and without Sema3A, after myosin II or Rho kinase inhibition. In kind it is cell-based, mouse. The protocol: An uncoated Transwell (pore diameter 5.0 μm; Corning) was placed in a 24-well plate containing CCL21 or CSCL12 in 0.6 ml of RPM1 containing 0.1% BSA. 1×10^5 dendritic cells in 0.1 ml of solution were added to the upper well of the Transwell, and incubated for 3 hours at 37° C. The cells in the […] chamber were ablated for 5 minutes with 5 mM PBS-EDTA, and counted by Guava. Fibronectin ([…]), type 1 collagen (3.0 mg/ml) or lymphatic endothelial cells were laid over the membrane of the top chamber for purposes of in vitro migration assay. In brief, 2×10^4 SVEC4-10 or HMVEC-dLy cells were seeded on the top or bottom surface of a Transwell insert coated with 2 μg/ml of fibronectin. […]
BMDC cells that had been treated for 30 minutes at 37° C. with 50 μM of blebbistatin or 30 μM of Y-27632 were applied to the upper chamber of a Transwell (pore diameter: 5 μm) overlaid with 3 mg/ml of type 1 collagen (left panel) and an HMVEC-dLy monolayer (right panel), and chemotaxis in response to CCL21 was measured in the […] chamber with and without Sema3A. The overall difference between groups was evaluated by one-way ANOVA. […]
A Transwell test was performed by the following methods. […] The cells in the lower chamber were ablated for 5 minutes by treatment with 5 mM of PBS-EDTA, and counted by Guava ViaCount assay on a Guava PCA system. […]

Molecules are shown by their SMILES.

The text below walks through data of patent publication US12474337B2, “Therapeutic agent for autoimmune diseases or allergy, and method for screening for the therapeutic agent” (OSAKA UNIVERSITY, priority 2009, dated 2025).

For `C[C@@H](N)[C@H]1CC[C@H](C(=O)Nc2ccncc2)CC1` [Y-27632], the “effect of Sema3A on dendritic cell trafficking after inhibitor treatment” value (DC cells treated 30 minutes at 37° C. with 30 μM Y-27632) is “disappeared”.
In the case of `Cc1ccc2c(c1)C(=O)C1(O)CCN(c3ccccc3)C1=N2` (centres unmarked) [blebbistatin], the “effect of Sema3A on dendritic cell trafficking after inhibitor treatment” value (DC cells treated 30 minutes at 37° C. with 50 μM blebbistatin) was “disappeared”.
